Counter-ions that a name gives are not always drawn.
Tests used:
[1] = system: Mouse phenylquinone writhing; test: Mouse phenylquinone writhing inhibitory activity; assay type: in vivo, mouse (Slc: ICR); details: 50 mg/kg, orally; for inhibition in vivo at 50 mg/kg: Mus musculus, po, 20 min, read-out: Inhibitory percentage (phenylquinone writhing)
Description: Mouse Phenylquinone Writhing Inhibitory Activity A Slc: ICR male mouse (4 weeks, weight 17 to 24 g) was used. A test compound suspended in 5% gum arabic solution was administered orally. After 30 minutes, 0.1 ml/10 g body weight of 0.02% phenylquinone solution in water (dissolved by the aid of 5% ethanol) was injected intraperitoneally, and writhing and stretching responses of individual animals were measured for 20 minutes [Siegmund, E., Cadmus, R. and Lu, G.; Proc. Soc. exp. Biol. Med. 95, (1957)].

[2] = molecular target: T1, cyclooxygenase (Rattus norvegicus, UniProt Q63921); test: Cyclooxygenase inhibitory activity (HHT formation from arachidonic acid in rat platelet-rich plasma); assay type: cell-based, rat (Jcl:wistar)
T1 construct: from tissue; host or cells: platelets in platelet-rich plasma from rat abdominal aorta blood (Jcl:wistar, male)
T1 sequence (Q63921 27-602): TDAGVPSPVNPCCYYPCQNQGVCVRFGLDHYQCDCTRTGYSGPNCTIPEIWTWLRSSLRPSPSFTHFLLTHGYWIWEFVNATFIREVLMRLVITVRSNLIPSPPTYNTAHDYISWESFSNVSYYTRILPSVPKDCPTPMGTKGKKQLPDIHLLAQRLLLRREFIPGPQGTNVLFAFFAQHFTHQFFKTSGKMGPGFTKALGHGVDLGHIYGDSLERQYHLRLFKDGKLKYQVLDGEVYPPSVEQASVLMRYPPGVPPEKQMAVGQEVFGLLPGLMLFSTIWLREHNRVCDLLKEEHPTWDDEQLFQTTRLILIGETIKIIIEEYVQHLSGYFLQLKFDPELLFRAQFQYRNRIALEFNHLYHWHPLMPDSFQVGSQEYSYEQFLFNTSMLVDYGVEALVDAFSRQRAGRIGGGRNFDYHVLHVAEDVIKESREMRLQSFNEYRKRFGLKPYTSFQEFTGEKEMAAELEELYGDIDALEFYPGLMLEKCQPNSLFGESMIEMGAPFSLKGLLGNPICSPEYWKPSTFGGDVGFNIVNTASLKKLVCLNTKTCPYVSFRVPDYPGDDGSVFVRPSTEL

[3] = system: ART (antigen-responding T-cell); test: In vitro ART (antigen-responding T-cell) proliferation test; assay type: cell-based, Lewis rat; details: for inhibition at 1 µM / inhibition at 10 µM: Rattus norvegicus, T-cell, read-out: % Inhibition of ART growth

SMILES	IC50 [2] [µM]	inhibition at 10 µM [3] [%]	also measured
CC(=O)N(CCCSc1ccncc1)Cc1ccccn1 [Example 79, 4-[3-(N-2-pyridylmethyl-N-acetylamino)propylthio]pyridine]	–	–	inhibition in vivo at 50 mg/kg [1]: 48%
O=C1SC(=Cc2ccccc2)C(=O)N1CCCSc1ccncc1 [Example 154, 4-[3-(5-benzylidene-2,4-thiazolidinedione)propylthio]pyridine]	6	27	inhibition at 1 µM ([3]; 1 μM): 16%
O=C(NCCCCOc1ccncc1)c1ccccc1CO [Example 148, 4-[4-(2-hydroxymethylbenzoyl)aminobutyloxy]pyridine]	3.1	–	–
O=C1c2ccccc2C(O)N1CCCCSc1ccncc1 (stereo not shown) [Example 107, 4-[4-(3-hydroxyisoindolin-1-on-2-yl)butylthio]pyridine]	4.3	–	–
CCCCCCCCCC(=O)NCCCOc1ccncc1 [Example 88]	1.2	–	inhibition in vivo at 50 mg/kg [1]: 41%
O=C(CCCc1ccccc1)NCCCSc1ccncc1 [Example 39, 4-[3-(4-phenyl-n-butyrylamino)propylthio]pyridine]	4.4	–	–
O=C(NCCCOc1ccncc1)c1cc2ccccc2s1 [Example 115, 4-[3-(thianaphthene-2-carbonyl)aminopropyloxy]pyridine hydrochloride]	–	53	inhibition at 1 µM ([3]; 1 μM): 18%
CCCCCCCCCC(=O)NCCCCCCSc1ccncc1 [Example 10]	2.2	–	–
COc1ccc(C=C2SC(=O)N(CCCCSc3ccncc3)C2=O)cc1 [Example 152, 4-[4-[5-(4-methoxybenzylidene)-2,4-thiazolidinedione]butylthio]pyridine]	–	68	inhibition at 1 µM ([3]; 1 μM): -20%
O=C1c2ccccc2S(=O)(=O)N1CCCCSc1ccncc1 [Example 166, 4-(4-saccharinbutylthio)pyridine]	12	–	–
O=C(NCCSc1ccncc1)c1cccs1 [Example 122, 4-(2-thenoylaminoethylthio)pyridine]	3.8	–	–
O=C1c2ccccc2C(=O)N1COc1ccccn1 [Example 67, 2-(phthalimidomethyloxy)pyridine]	–	–	inhibition in vivo at 50 mg/kg [1]: 49%
O=C(c1ccccc1)N(CCSc1ccncc1)Cc1ccccc1 [Example 120, 4-[2-(N-benzyl-N-benzoylamino)ethylthio]pyridine]	–	74	inhibition at 1 µM ([3]; 1 μM): 16%
CC1(C)NC(=O)N(CCCCSc2ccncc2)C1=O [Example 140, 5,5-dimethyl-3-[4-(4-pyridylthio)butyl]hydantoin]	–	-25	inhibition at 1 µM ([3]; 1 μM): -9%
CCCCc1ccc(C(=O)NCCCSc2ccncc2)cc1 [Example 34, 4-[3-(4-n-butylbenzoylamino)propylthio]pyridine hydrochloride]	2.9	47	inhibition at 1 µM ([3]; 1 μM): 31%
COc1ccc(C(=O)NCCCSc2ccncc2)cc1 [Example 30, 4-[3-(4-methoxybenzoylamino)propylthio]pyridine]	6.6	–	–
O=C(c1ccccc1)N(CCOc1ccncc1)Cc1ccccc1 [Example 117, 4-[2-(N-benzyl-N-benzoyl)aminoethyloxy]pyridine]	–	39	% Inhibition of ART growth ([3]; 1 μM): 3%
O=C(N(CCCSc1ccncc1)Cc1ccccn1)C(F)(F)F [Example 78, 4-[3-(N-2-pyridylmethyl-N-trifluoroacetylamino)propylthio] pyridine dihydrochloride]	5.2	–	inhibition in vivo at 50 mg/kg [1]: 55%
O=C(c1ccccc1)N(CCCSc1ccncc1)Cc1cccs1 [Example 92, 4-[3-(N-(2-thienylmethyl)-N-benzoylamino)propylthio]pyridine]	–	–	Inhibitory percentage (phenylquinone writhing) [1]: 74%
CC(C)(C)C(=O)NCCCOc1ccncc1 [Example 86, 4-(3-pivaloylaminopropyloxy) pyridine]	–	–	inhibition in vivo at 50 mg/kg [1]: 51%
O=C(NCCCCSc1ccncc1)c1ccccc1CO [Example 106, 4-[4-(2-hydroxymethylbenzoyl)aminobutylthio]pyridine]	3.7	–	–
CCCCCCCCCC(=O)NCCSc1ccncc1 [Example 7]	4.4	–	–
CCCCCCCCCCCCCC(=O)NCCCSc1ccncc1 [Example 18, 4-[3-(myristoylamino)propylthio] pyridine]	7	–	–

From patent US5457106A, “Pyridine derivatives, their production and use” (Takeda Chemical Industries, Ltd., priority 1991, dated 1995)
